This note sets out measurements from patent US7875284B2, “Methods of manufacturing and modifying taxane coatings for implantable medical devices” (Cook Incorporated, priority 2006, dated 2011).

The structures appear in SMILES notation.

For data set [1] the following is noted: for first order rate constants k1, k2 used for the dissolution formula: restated.
From the text: The rate of dissolution of the taxane therapeutic agent can vary based on the elution medium being used and the solid form of the taxane therapeutic agent before dissolution. An elution profile can be obtained by any suitable method that allows for measurement of the release of the taxane therapeutic agent from the coating in a manner that can be measured with a desired level of accuracy and precision. In one embodiment, the elution profile of the release of a taxane therapeutic agent is obtained by contacting the medical device with a suitable elution medium. The elution medium can be formulated to simulate conditions present at a particular point of treatment within a body vessel. For example, an elution medium comprising porcine serum can be used to simulate implantation within a blood vessel. The release of taxane therapeutic agent from the medical device can be measured by any suitable spectrographic method, such as measurement of a UV absorption spectrum of the test fluid after contacting the medical device. Typically, the intensity of absorption at characteristic UV absorption peak, such as about 227 nm, can be correlated to the presence and amount of a taxane therapeutic agent in a sample. The amount of taxane therapeutic agent on the medical device can be determined by contacting the medical device with a suitable elution medium and detecting the amount of taxane therapeutic agent released from the medical device into the elution medium.
Preferably, the coated medical device can be contacted with a modified porcine serum elution medium at a constant flow rate of 16 mL/min for a desired period of time (e.g., 6-24 hours) sufficient to elute the aPTX present on the stent. The percentage of the taxane therapeutic agent dissolved can be measured as a function of time by monitoring the optical density of the first elution medium at 227 nm after contacting the coated stent, as described above. The modified porcine serum elution medium can be prepared by adding 0.104 mL of a 6.0 g/L Heparin solution to porcine serum at 37° C. and adjusting the pH to 5.6+/−0.3 using a 20% v/v aqueous solution of acetic acid. The elution rate profile of the taxane therapeutic agent can be measured for any desired period, and correlated to the amount of aPTX in the coating. Subsequently, the coated medical device is contacted with a second elution medium comprising 0.3% sodium dodecyl sulfate (SDS) at 25° C. a constant flow rate of 16 mL/min for a suitable time period to elute the dPTX present in the coating. The elution rate profile of the taxane therapeutic agent can be measured for any desired period, and correlated to the amount of aPTX (e.g., by elution in porcine serum) and dPTX (e.g., by subsequent elution in SDS) in the coating.
A short description of data set [2]: Elution of paclitaxel coatings in aqueous Heptakis-(2,6-di-O-methyl)-β-cyclodextrin (HCD). It is filed as physicochemical. Particulars: 0.5% w/w aqueous HCD, 25° C.; within about 1 hour. An excerpt: A preferred first elution medium is an aqueous solution comprising 0.1% to about 10% of a cyclodextrin. In one aspect, an elution profile may be obtained by contacting a coated medical device comprising a taxane therapeutic agent with an elution medium comprising a cyclodextrin. A cyclodextrin is a cyclic oligosaccharide formed from covalently-linked glucopyranose rings defining an internal cavity. The diameter of the internal axial cavity of cyclodextrins increases with the number of glucopyranose units in the ring. The size of the glucopyranose ring can be selected to provide an axial cavity selected to match the molecular dimensions of a taxane therapeutic agent. The cyclodextrin is preferably a modified beta-cyclodextrin, such as Heptakis-(2,6-di-O-methyl)-β-cyclodextrin (HCD). Suitable cyclodedtrin molecules include other β-cyclodextrin molecules, as well as γ-cyclodextrin structures.
Preferably, the cyclodextrin elution medium is formulated to provide distinguishable elution rates for different coating configurations, providing different elution profiles for different solid forms of a taxane therapeutic agent in the coating. […] For example, the elution medium may contact a medical device coating in a continuous flow configuration, or in a batch testing configuration.
Taxane therapeutic agents typically have different elution profiles in different elution media.

Data set [3] in a line: Elution of paclitaxel coatings in 0.3% sodium dodecyl sulfate (SDS). It is filed as physicochemical. Particulars: 0.3% SDS, 25° C.; FIGS. 7A-7B. An excerpt: Taxane therapeutic agents can have different elution profiles in different elution media. Another suitable elution medium for taxane therapeutic agent is sodium dodecyl sulfate (SDS).

On to `CC(=O)O[C@H]1C(=O)[C@@]2(C)[C@H]([C@H](OC(=O)c3ccccc3)[C@]3(O)C[C@H](OC(=O)[C@H](O)[C@@H](NC(=O)c4ccccc4)c4ccccc4)C(C)=C1C3(C)C)[C@]1(OC(C)=O)CO[C@@H]1C[C@@H]2O` [amorphous paclitaxel, paclitaxel], for which the “time within which substantially all of the paclitaxel eluted” value in data set [1] (continuous flow of porcine serum, FIG. 14, Example 6) is “less than 5 hours”. In addition, the “half life of elution” value in data set [1] (pig, serum) is recorded as “about 30 minutes”. Moreover, in data set [1] (porcine serum, 37° C., single-layer coating on vascular stent, within about 6.5 hours (400 minutes)), the “percentage of the coating dissolved” value is 100%. Besides, the “first order rate constants k1, k2 used for the dissolution formula” value in data set [1] (porcine serum) stood at 0.0244 min⁻¹. Moreover, the “percentage of paclitaxel dissolved/released” value in data set [2] is “about 80%”. Also, in data set [3], the “rate of elution compared with dihydrate paclitaxel” value is given as “more rapid”.
For the compound `CC(=O)O[C@H]1C(=O)[C@@]2(C)[C@H]([C@H](OC(=O)c3ccccc3)[C@]3(O)C[C@H](OC(=O)[C@H](O)[C@@H](NC(=O)c4ccccc4)c4ccccc4)C(C)=C1C3(C)C)[C@]1(OC(C)=O)CO[C@@H]1C[C@@H]2O` [dihydrate paclitaxel, paclitaxel], the “first order rate constant of elution” value in data set [1] (porcine serum (25° C.) as printed) is given as “about 0.0003 min^−1”. Further, in data set [1] (porcine serum, 37° C., single-layer coating on vascular stent, after about 24 hours), the “percentage of the coating eluted” value is “less than 40%”. In addition, the “first order rate constants k1, k2 used for the dissolution formula” value in data set [1] (porcine serum) worked out at 0.0003 min⁻¹. The “percentage of paclitaxel dissolved/released” value in data set [2] is recorded as “less than 20%”.
